Target: T1, recombinant human liver glycogen phosphorylase (HLGPa) (Homo sapiens, UniProt P06737)
T1 construct: made in house; host or cells: Sf9 insect cells (unpurified cell lysate used as enzyme solution)
T1 sequence (P06737 1-847): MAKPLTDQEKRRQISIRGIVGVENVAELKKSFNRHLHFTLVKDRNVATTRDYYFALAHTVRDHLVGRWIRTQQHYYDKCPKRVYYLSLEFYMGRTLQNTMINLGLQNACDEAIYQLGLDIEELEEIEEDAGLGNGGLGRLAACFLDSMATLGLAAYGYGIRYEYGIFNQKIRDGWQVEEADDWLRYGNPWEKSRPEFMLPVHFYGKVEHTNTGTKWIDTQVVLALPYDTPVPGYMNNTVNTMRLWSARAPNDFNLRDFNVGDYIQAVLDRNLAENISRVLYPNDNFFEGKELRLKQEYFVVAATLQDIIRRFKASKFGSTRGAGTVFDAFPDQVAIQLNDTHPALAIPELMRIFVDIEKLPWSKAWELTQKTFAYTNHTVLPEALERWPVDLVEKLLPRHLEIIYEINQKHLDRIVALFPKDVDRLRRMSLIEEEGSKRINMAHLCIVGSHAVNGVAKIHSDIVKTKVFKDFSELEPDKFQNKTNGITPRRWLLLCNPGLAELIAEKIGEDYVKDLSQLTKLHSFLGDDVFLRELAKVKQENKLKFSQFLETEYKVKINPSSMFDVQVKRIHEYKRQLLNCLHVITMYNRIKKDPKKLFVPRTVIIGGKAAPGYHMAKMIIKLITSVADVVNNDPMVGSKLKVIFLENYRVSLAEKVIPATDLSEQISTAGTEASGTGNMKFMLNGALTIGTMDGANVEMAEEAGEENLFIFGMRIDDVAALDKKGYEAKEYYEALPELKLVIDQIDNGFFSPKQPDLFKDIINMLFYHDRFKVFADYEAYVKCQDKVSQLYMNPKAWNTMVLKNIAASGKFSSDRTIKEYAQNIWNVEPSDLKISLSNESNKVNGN
Assay: Measurement of liver glycogen phosphorylase activity (enzyme inhibitory activity against HLGPa)
Assay type: biochemical
Settings: Sf9 cell lysate expressing recombinant enzyme; reverse reaction (glycogen synthesis from G1-P), phosphate by malachite green, 60 min room temperature
Description: Measurement Method of Liver Glycogen Phosphorylase Activity
The measurement of the glycogen phosphorylase activity was performed by measuring the concentration of phosphoric acic produced by a reverse reaction, that is, a reaction wherein the glycogen phosphorylase synthesizes glycogen from G1-P. A cell lysate of Sf9 cells that forcibly expressed recombinant human liver glycogen phosphorylase was diluted to a protein amount of 80 μg/mL with 1 mM imidazole-hydrochloric acid buffer (pH 7.0, containing 0.2 mM PMSF, 250 mM NaCl, 0.025% BSA) and the dilute cell lysate was used as an enzyme solution of human liver glycogen phosphorylase. As a substrate solution, 25 mM Tris-HCl buffer (pH 7.2, containing 250 mM KCl, 6.25 mM MgCl2, 6.25 mM EGTA, 1.25 mM glucose-1-phosphate, 2.5 mg/ml glycogen, 7.5 mM glucose) was used. The test drug was dissolved in 0.5% dimethyl sulfoxide (DMSO). To a mixture of the test drug (10 μl) and the substrate solution (20 μl) was added an enzyme solution (20 μl) to start the enzyme reaction. As a control, 0.5% DMSO was added instead of the test drug. One free of addition of enzyme was used as a blank. The mixture was reacted at room temperature for 60 min, and a malachite green solution (50 μl) was added. The mixture was further reacted at room temperature for 20 min and absorbance at 650 nm was measured. An enzyme solution was added to the blank simultaneously with the malachite green solution and the measurement was done in the same manner. The percent inhibition (%) of the test drug was calculated from ((value of control−value of the test drug)/(value of control−value of blank))×100 (%).

Row | SMILES | IC50
1 | CN(C)c1ccccc1C(=O)NNC(=O)c1cc2cc(Cl)ccc2[nH]1 [Example 1-51, 2-(dimethylamino)benzoic acid 2-(5-chloro-1H-indole-2-carbonyl)hydrazide] | 89 nM
2 | CN(C)C(=O)COc1ccccc1C(=O)NNC(=O)c1cc2cc(Cl)ccc2[nH]1 [Example 1-52, 2-(2-(5-chloro-1H-indole-2-carbonyl)hydrazinocarbonyl)phenoxy-N,N-dimethylacetamide] | 91 nM
3 | Nc1cc(Cl)ccc1C(=O)NNC(=O)c1cc2cc(Cl)ccc2[nH]1 [Example 1-54, 2-amino-4-chlorobenzoic acid 2-(5-chloro-1H-indole-2-carbonyl)hydrazide] | 30 nM
4 | Nc1cccc(Cl)c1C(=O)NNC(=O)c1cc2cc(Cl)ccc2[nH]1 [Example 1-55, 2-amino-6-chlorobenzoic acid 2-(5-chloro-1H-indole-2-carbonyl)hydrazide] | 87 nM
5 | Nc1ccc(Cl)cc1C(=O)NNC(=O)c1cc2cc(Cl)ccc2[nH]1 [Example 1-57, 2-amino-5-chlorobenzoic acid 2-(5-chloro-1H-indole-2-carbonyl)hydrazide] | 30 nM
6 | N#Cc1ccc(C(=O)NNC(=O)c2cc3cc(Cl)ccc3[nH]2)cc1 [Example 1-58, 4-cyanobenzoic acid 2-(5-chloro-1H-indole-2-carbonyl)hydrazide] | > 100 nM
7 | O=C(NNC(=O)c1cc2cc(Cl)ccc2[nH]1)c1ccc(-c2nnn[nH]2)cc1 [Example 1-59, 4-(1H-tetrazol-5-yl)benzoic acid 2-(5-chloro-1H-indole-2-carbonyl)hydrazide] | > 100 nM
8 | O=C(NNC(=O)c1cc2cc(Cl)ccc2[nH]1)c1cccc(-c2nnn[nH]2)c1 [Example 1-60, 3-(1H-tetrazol-5-yl)benzoic acid 2-(5-chloro-1H-indole-2-carbonyl)hydrazide] | > 100 nM
9 | O=C(O)CNc1ccccc1C(=O)NNC(=O)c1cc2cc(Cl)ccc2[nH]1 [Example 1-61, 2-(2-(2-(5-chloro-1H-indole-2-carbonyl)hydrazinocarbonyl)anilino)acetic acid] | 49 nM
10 | Cc1ccc2[nH]c(C(=O)NNC(=O)c3ccccc3N)cc2c1 [Example 1-62, 2-aminobenzoic acid 2-(5-methyl-1H-indole-2-carbonyl)hydrazide] | 88 nM
11 | Cc1ccc2[nH]c(C(=O)NNC(=O)c3ccc(F)cc3N)cc2c1 [Example 1-63, 2-amino-4-fluorobenzoic acid 2-(5-methyl-1H-indole-2-carbonyl)hydrazide] | 28 nM
12 | COC(=O)Nc1ccccc1C(=O)NNC(=O)c1cc2cc(C)ccc2[nH]1 [Example 1-64, methyl (2-(2-(5-methyl-1H-indole-2-carbonyl)hydrazinocarbonyl)phenyl)carbamate] | > 100 nM
13 | CN(C)C(=O)Oc1ccccc1C(=O)NNC(=O)c1cc2cc(Cl)ccc2[nH]1 [Example 1-65, 2-(2-(5-chloro-1H-indole-2-carbonyl)hydrazinocarbonyl)phenyl dimethylcarbamate] | > 100 nM
14 | CCc1ccc2[nH]c(C(=O)NNC(=O)c3ccccc3N)cc2c1 [Example 1-66, 2-aminobenzoic acid 2-(5-ethyl-1H-indole-2-carbonyl)hydrazide] | > 100 nM
15 | Cc1ccc2[nH]c(C(=O)NNC(=O)c3cc(F)c(F)cc3N)cc2c1 [Example 1-67, 2-Amino-4,5-difluorobenzoic acid 2-(5-methyl-1H-indole-2-carbonyl)hydrazide] | 54 nM
16 | O=C(NNC(=O)c1ccccc1OCCO)c1cc2cc(Cl)ccc2[nH]1 [Example 1-68, 2-(2-hydroxyethoxy)benzoic acid 2-(5-chloro-1H-indole-2-carbonyl)hydrazide] | 160 nM
17 | COC(=O)COc1cccc(C(=O)NNC(=O)c2cc3cc(Cl)ccc3[nH]2)c1 [Example 1-69, 2-(3-(2-(5-chloro-1H-indole-2-carbonyl)hydrazinocarbonyl)phenoxy)acetic acid methyl ester] | 150 nM
18 | O=C(O)COc1cccc(C(=O)NNC(=O)c2cc3cc(Cl)ccc3[nH]2)c1 [Example 1-70, 2-(3-(2-(5-chloro-1H-indole-2-carbonyl)hydrazinocarbonyl)phenoxy)acetic acid] | 150 nM
19 | CN(C)C(=O)COc1cccc(C(=O)NNC(=O)c2cc3cc(Cl)ccc3[nH]2)c1 [Example 1-71, 2-(3-(2-(5-chloro-1H-indole-2-carbonyl)hydrazinocarbonyl)phenoxy)-N,N-dimethylacetamide] | 62 nM
20 | O=C(NNC(=O)c1cc2cc(Cl)ccc2[nH]1)c1ccc(-c2ncn[nH]2)cc1 [Example 1-73, 4-(2H-[1,2,4]triazol-3-yl)benzoic acid 2-(5-chloro-1H-indole-2-carbonyl)hydrazide] | 76 nM
21 | O=C(Nc1ccccc1C(=O)NNC(=O)c1cc2cc(Cl)ccc2[nH]1)OC(CO)CO [Example 1-75, 1,3-dihydroxy-2-propyl (2-(2-(5-chloro-1H-indole-2-carbonyl)hydrazinocarbonyl)phenyl)carbamate] | 250 nM
22 | CC(C)(COC(=O)Nc1ccccc1C(=O)NNC(=O)c1cc2cc(Cl)ccc2[nH]1)C(=O)O [Example 1-76, 3-((2-(2-(5-chloro-1H-indole-2-carbonyl)hydrazinocarbonyl)phenyl)carbamoyloxy)-2,2-dimethylpropionic acid] | 37 nM

Second part, the molecule after the results:

Row | IC50 | SMILES
23 | 230 nM | CNc1ccccc1C(=O)NNC(=O)c1cc2cc(Cl)ccc2[nH]1 [Example 1-53, 2-methylaminobenzoic acid 2-(5-chloro-1H-indole-2-carbonyl)hydrazide]
24 | > 100 nM | Cc1nc(C(=O)NNC(=O)c2cc3cc(Cl)ccc3[nH]2)cs1 [Example 1-72, 2-methylthiazole-4-carboxylic acid 2-(5-chloro-1H-indole-2-carbonyl)hydrazide]
25 | 18 nM | O=C(NNC(=O)c1ccco1)c1cc2cc(Cl)ccc2[nH]1 [Example 1-78, furan-2-carboxylic acid 2-(5-chloro-1H-indole-2-carbonyl)hydrazide]
26 | 83 nM | O=C(NNC(=O)c1ccc(Cl)nc1Cl)c1cc2cc(Cl)ccc2[nH]1 [Example 1-79, 2,6-dichloronicotinic acid 2-(5-chloro-1H-indole-2-carbonyl)hydrazide]
27 | 400 nM | O=C(NNC(=O)c1cc2cc(Cl)ccc2[nH]1)c1ccc[nH]1 [Example 1-80, 1H-pyrrole-2-carboxylic acid 2-(5-chloro-1H-indole-2-carbonyl)hydrazide]
28 | 360 nM | O=C(NNC(=O)c1cc2cc(Cl)ccc2[nH]1)c1cnccn1 [Example 1-82, pyrazine-2-carboxylic acid 2-(5-chloro-1H-indole-2-carbonyl)hydrazide]
29 | 880 nM | O=C(NNC(=O)c1cc2cc(Cl)ccc2[nH]1)c1ccsc1 [Example 1-83, thiophene-3-carboxylic acid 2-(5-chloro-1H-indole-2-carbonyl)hydrazide]
30 | 20 nM | O=C(NNC(=O)c1cc2cc(Cl)ccc2[nH]1)c1ccoc1 [Example 1-84, furan-3-carboxylic acid 2-(5-chloro-1H-indole-2-carbonyl)hydrazide]
31 | 430 nM | O=C(NNC(=O)c1ccc(Cl)s1)c1cc2cc(Cl)ccc2[nH]1 [Example 1-85, 5-chlorothiophene-2-carboxylic acid 2-(5-chloro-1H-indole-2-carbonyl)hydrazide]
32 | 28 nM | O=C(NNC(=O)c1sccc1Cl)c1cc2cc(Cl)ccc2[nH]1 [Example 1-86, 3-chlorothiophene-2-carboxylic acid 2-(5-chloro-1H-indole-2-carbonyl)hydrazide]
33 | 56 nM | Cn1cccc1C(=O)NNC(=O)c1cc2cc(Cl)ccc2[nH]1 [Example 1-87, 1-methyl-1H-pyrrole-2-carboxylic acid 2-(5-chloro-1H-indole-2-carbonyl)hydrazide]

— patent publication US20050054696A1, “Indole compounds and medicinal use thereof” (priority 2001, published 2005)
